For the data set, the system named is CCRIS mutagenicity, Ames/micronucleus/aberration tests. The data set can be described thus: CCRIS mutagenicity studies.
Setting [1] is: Test System: AMES SALMONELLA TYPHIMURIUM, Strain/Indicator: TA98, Metabolic Activation: NONE, Method: PREINCUBATION
Where [2] appears, read: Test System: AMES SALMONELLA TYPHIMURIUM, Strain/Indicator: TA100, Metabolic Activation: NONE, Method: PREINCUBATION
The mark [3] stands for this setting: Test System: AMES SALMONELLA TYPHIMURIUM, Strain/Indicator: TA100, Metabolic Activation: NONE.
The mark [4] stands for this setting: Test System: AMES SALMONELLA TYPHIMURIUM, Strain/Indicator: TA98, Metabolic Activation: NONE, Method: STANDARD PLATE.
Where [5] appears, read: Test System: AMES SALMONELLA TYPHIMURIUM, Strain/Indicator: TA100, Metabolic Activation: NONE, Method: STANDARD PLATE.
[6] abbreviates: Test System: AMES SALMONELLA TYPHIMURIUM, Strain/Indicator: TA98, Metabolic Activation: RAT, LIVER, S-9, AROCLOR 1254, Method: PREINCUBATION
[7] abbreviates: Test System: AMES SALMONELLA TYPHIMURIUM, Strain/Indicator: TA100, Metabolic Activation: RAT, LIVER, S-9, AROCLOR 1254, Method: PREINCUBATION

Drawing on PubChem BioAssay AID1259407 (Chemical Carcinogenesis Research Information System (CCRIS), 2018), this text covers mutagenic call for 12 molecules.

Activity calls are given as the source filed them. How the calls were made is not given here.

As to `CCCSC(=O)Cl`, the mutagenic call is “inactive; negative” (Test System: AMES SALMONELLA TYPHIMURIUM, Strain/Indicator: TA97, Metabolic Activation: HAMSTER, LIVER, S-9, AROCLOR 1254 (30%), Method: PREINCUBATION); “inactive; negative” (Test System: AMES SALMONELLA TYPHIMURIUM, Strain/Indicator: TA97, Metabolic Activation: NONE, Method: PREINCUBATION); “inactive; negative” (Test System: AMES SALMONELLA TYPHIMURIUM, Strain/Indicator: TA97, Metabolic Activation: RAT, LIVER, S-9, AROCLOR 1254 (30%), Method: PREINCUBATION); “inactive; negative” (Test System: AMES SALMONELLA TYPHIMURIUM, Strain/Indicator: TA98, Metabolic Activation: HAMSTER, LIVER, S-9, AROCLOR 1254 (30%), Method: PREINCUBATION); “inactive; negative” under setting [1]; “inactive; negative” (Test System: AMES SALMONELLA TYPHIMURIUM, Strain/Indicator: TA98, Metabolic Activation: RAT, LIVER, S-9, AROCLOR 1254 (30%), Method: PREINCUBATION). The mutagenic call was “inactive; negative” (Test System: AMES SALMONELLA TYPHIMURIUM, Strain/Indicator: TA100, Metabolic Activation: HAMSTER, LIVER, S-9, AROCLOR 1254 (30%), Method: PREINCUBATION); “inactive; negative” under setting [2]; “inactive; negative” (Test System: AMES SALMONELLA TYPHIMURIUM, Strain/Indicator: TA100, Metabolic Activation: RAT, LIVER, S-9, AROCLOR 1254 (30%), Method: PREINCUBATION); “inactive; negative” (Test System: AMES SALMONELLA TYPHIMURIUM, Strain/Indicator: TA1535, Metabolic Activation: HAMSTER, LIVER, S-9, AROCLOR 1254 (5%), Method: PREINCUBATION); “active; positive” (Test System: AMES SALMONELLA TYPHIMURIUM, Strain/Indicator: TA1535, Metabolic Activation: HAMSTER, LIVER, S-9, AROCLOR 1254 (10%), Method: PREINCUBATION); “active; positive” (Test System: AMES SALMONELLA TYPHIMURIUM, Strain/Indicator: TA1535, Metabolic Activation: HAMSTER, LIVER, S-9, AROCLOR 1254 (30%), Method: PREINCUBATION). Also, the mutagenic call (Test System: AMES SALMONELLA TYPHIMURIUM, Strain/Indicator: TA1535, Metabolic Activation: NONE, Method: PREINCUBATION) is “inactive; negative”; the mutagenic call (Test System: AMES SALMONELLA TYPHIMURIUM, Strain/Indicator: TA1535, Metabolic Activation: RAT, LIVER, S-9, AROCLOR 1254 (30%), Method: PREINCUBATION) was “inactive; negative”; the mutagenic call (Test System: AMES SALMONELLA TYPHIMURIUM, Strain/Indicator: TA1537, Metabolic Activation: HAMSTER, LIVER, S-9, AROCLOR 1254 (30%), Method: PREINCUBATION) is “inactive; negative”; the mutagenic call (Test System: AMES SALMONELLA TYPHIMURIUM, Strain/Indicator: TA1537, Metabolic Activation: NONE, Method: PREINCUBATION) was “inactive; negative”; the mutagenic call (Test System: AMES SALMONELLA TYPHIMURIUM, Strain/Indicator: TA1537, Metabolic Activation: RAT, LIVER, S-9, AROCLOR 1254 (30%), Method: PREINCUBATION) was “inactive; negative”.
With `CCOC(=O)N(C)C`, the mutagenic call (Test System: AMES SALMONELLA TYPHIMURIUM, Strain/Indicator: TA98, Metabolic Activation: NONE) is “inactive; negative”; the mutagenic call under setting [3] was “inactive; negative”; the mutagenic call (Test System: AMES SALMONELLA TYPHIMURIUM, Strain/Indicator: TA1535, Metabolic Activation: NONE) was “active; positive”; the mutagenic call (Test System: AMES SALMONELLA TYPHIMURIUM, Strain/Indicator: TA1535, Metabolic Activation: S-9, AROCLOR 1254) is “active; positive”.
As for `Cn1c2ccccc2c2ccc([N+](=O)[O-])cc21`, the mutagenic call under setting [4] was “active; positive”; the mutagenic call (Test System: AMES SALMONELLA TYPHIMURIUM, Strain/Indicator: TA98, Metabolic Activation: RAT LIVER S-9, AROCLOR 1254, Method: STANDARD PLATE) is “active; positive”; the mutagenic call under setting [5] was “active; positive”; the mutagenic call (Test System: AMES SALMONELLA TYPHIMURIUM, Strain/Indicator: TA100, Metabolic Activation: RAT LIVER S-9, AROCLOR 1254, Method: STANDARD PLATE) was “active; positive”.
`CO[C@]1(CC[C@@H](C)CO[C@@H]2O[C@H](CO)[C@@H](O)[C@H](O)[C@H]2O)O[C@H]2C[C@H]3[C@@H]4CC=C5C[C@@H](O[C@@H]6O[C@H](CO)[C@@H](O)[C@H](O[C@@H]7O[C@H](CO)[C@@H](O)[C@H](O)[C@H]7O)C6O[C@@H]6O[C@@H](C)[C@H](O)[C@@H](O)[C@H]6O)CC[C@]5(C)[C@H]4CC[C@]3(C)[C@H]2[C@@H]1C` (stereo partly drawn): the mutagenic call under setting [4] was “inactive; negative”; the mutagenic call (Test System: AMES SALMONELLA TYPHIMURIUM, Strain/Indicator: TA98, Metabolic Activation: RAT, LIVER, S-9, PHENOBARBITAL, Method: STANDARD PLATE) was “inactive; negative”; the mutagenic call under setting [5] is “inactive; negative”; the mutagenic call (Test System: AMES SALMONELLA TYPHIMURIUM, Strain/Indicator: TA100, Metabolic Activation: RAT, LIVER, S-9, PHENOBARBITAL, Method: STANDARD PLATE) is “inactive; negative”.
With `Cc1c2ccccc2c(CO)c2c1ccc1ccccc12`, the mutagenic call (Test System: CHINESE HAMSTER V-79, Strain/Indicator: V-79/6-THIOGUANINE, Metabolic Activation: CELL-MEDIATED, Method: STANDARD PLATE) is “active; positive” and the mutagenic call (Test System: CHINESE HAMSTER V-79, Strain/Indicator: V-79/OUABAIN, Metabolic Activation: CELL-MEDIATED, Method: STANDARD PLATE) is “active; positive”.
On to `Cc1ccsc1`, for which the mutagenic call reads like this: under setting [1], “inactive; negative”; under setting [6], “inactive; negative”; under setting [2], “inactive; negative”; under setting [7], “inactive; negative”; (Test System: AMES SALMONELLA TYPHIMURIUM, Strain/Indicator: TA102, Metabolic Activation: NONE, Method: PREINCUBATION) “inactive; negative”; (Test System: AMES SALMONELLA TYPHIMURIUM, Strain/Indicator: TA102, Metabolic Activation: RAT, LIVER, S-9, AROCLOR 1254, Method: PREINCUBATION) “inactive; negative”.
Consider `OC1C=C2c3ccc4ccccc4c3-c3cccc(c32)C1O` (stereo not drawn), for which the mutagenic call was “inactive; negative” (Test System: AMES SALMONELLA TYPHIMURIUM, Strain/Indicator: TA97A, Metabolic Activation: NONE, Method: PREINCUBATION); “active; positive” (Test System: AMES SALMONELLA TYPHIMURIUM, Strain/Indicator: TA97A, Metabolic Activation: RAT, LIVER, S-9, AROCLOR 1254, Method: PREINCUBATION); “inactive; negative” under setting [1]; “active; positive” under setting [6]; “active; positive” under setting [2]; “active; positive” under setting [7].
For the molecule `CCOc1cc(N=Nc2ccccc2)ccc1N=Nc1c(S(=O)(=O)O)cc2ccc(N)cc2c1O`, the mutagenic call reads like this: under setting [4], “inactive; negative”; (Test System: AMES SALMONELLA TYPHIMURIUM, Strain/Indicator: TA98, Metabolic Activation: RAT, LIVER, S-9, AROCLOR 1254, Method: STANDARD PLATE) “active; positive”; under setting [5], “inactive; negative”; (Test System: AMES SALMONELLA TYPHIMURIUM, Strain/Indicator: TA100, Metabolic Activation: RAT, LIVER, S-9, AROCLOR 1254, Method: STANDARD PLATE) “active; positive”; (Test System: AMES SALMONELLA TYPHIMURIUM, Strain/Indicator: TA1538, Metabolic Activation: NONE, Method: STANDARD PLATE) “inactive; negative”; (Test System: AMES SALMONELLA TYPHIMURIUM, Strain/Indicator: TA1538, Metabolic Activation: RAT, LIVER, S-9, AROCLOR 1254, Method: STANDARD PLATE) “active; positive”.
In the case of `CNc1ccc2ncccc2c1N`, the mutagenic call is, setting by setting: under setting [1], “inactive; negative”; under setting [6], “inactive; negative”; under setting [2], “inactive; negative”; under setting [7], “inactive; negative”.
With `c1ccc([C@H]2CO2)cc1`, the mutagenic call was “active; positive” under setting [3] and “active; positive” under setting [5].
Turning to `COc1ccc(CN2C3c4ccccc4-c4ccccc4C32)cc1` (stereo not drawn), the mutagenic call under setting [5] was “active; positive”.
As to `Nc1cc2ccccc2cc1N`, the mutagenic call (Test System: AMES SALMONELLA TYPHIMURIUM, Strain/Indicator: TA98, Metabolic Activation: RAT LIVER CYTOSOL, AROCLOR 1254, Method: STANDARD PLATE) was “active; positive” and the mutagenic call (Test System: AMES SALMONELLA TYPHIMURIUM, Strain/Indicator: TA98, Metabolic Activation: RAT LIVER MICROSOMES, AROCLOR 1254, Method: STANDARD PLATE) is “active; positive”.
